This note sets out measurements from PubChem BioAssay (NCI).

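Exposure lasted 48 hours, with cells grown in 96-well plates and compounds tested at five concentrations. TGI marks complete inhibition of growth.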 A value given as a limit tells only on which side of the number the result lay.

Holding throughout (assay): NCI anticancer screen, dose series, 48 h
Assay [1] concerns K-562 leukemia.
Assay [2] has as its system SF-268 CNS.
Assay [3] relates to MDA-MB-231 breast.
The subject of assay [4] is HT29 colon.
The test system of assay [5] is U251 CNS.
Assay [6] relates to SK-OV-3 ovarian.
Assay [7] relates to PC-3 prostate.
Assay [8] deals with EKVX NSCLC.
For assay [9], the system named is NCI-H460 lung.
Assay [10] has as its system MDA-N.
Assay [11] relates to SN12C renal.
In assay [12] the test system is OVCAR-5 ovarian.
In assay [13] the test system is DU-145 prostate.
For assay [14], the system named is KM12 colon.
Assay [15] has as its system NCI-H23 lung.
For assay [16], the system named is HS 578T breast.
Assay [17] relates to HCC-2998 colon.
Assay [18] concerns SF-539 CNS.
Assay [19] deals with MCF7 breast.

In the case of `O=C1Nc2ccccc2C1S(=O)(=O)c1ccccc1` (configuration not stated), the TGI in assay [1], in assay [2], in assay [3], in [4], in assay [5] and in [6] was greater than 100 µM each time. The TGI in assay [7], in [8], in assay [9], in assay [10], in [11] and in [12] was greater than 100 µM in each case. Also, the TGI in [13], in [14], in assay [15], in assay [16] and in [17] was greater than 100 µM throughout.
With `O=C(O)c1ccccc1CC(Cc1ccccc1)C(=O)O` (configuration not stated), the TGI in assay [1], in [2], in assay [3], in assay [4], in assay [5] and in assay [6] was greater than 100 µM each time. Further, the TGI in assay [7], in assay [8], in [9], in [10], in assay [11] and in [12] was greater than 100 µM each time. Moreover, the TGI in assay [13], in assay [18], in assay [14], in assay [15], in assay [16] and in [17] was greater than 100 µM each time.
For `CCCCC1Cc2cc(OC)ccc2-c2n1c1cc(OC)ccc1[n+]2C` (configuration not stated) (tested in a mixture with another compound), the TGI was greater than 62.8 µM in [1]; 6.09 µM in assay [2]; 20.6 µM in assay [3]; greater than 29.2 µM in assay [4]; greater than 26.5 µM in assay [5]; 54.1 µM in [6]. The TGI in assay [7] amounted to 30.4 µM; in assay [8] it was 20.2 µM; in assay [9], 18.1 µM; in assay [10], 11.1 µM; in assay [11], 7.97 µM; in assay [12], 68.2 µM. For the same compound, the TGI in assay [13] is greater than 64.1 µM; in [18] it was greater than 44.9 µM; in assay [14], 10.7 µM; in [15] it was greater than 39.9 µM; in assay [17], 8.51 µM; in [19], 15.8 µM.
Consider `O=C1c2ccccc2-n2c1nc1ccc(Cl)cc1c2=O`, for which the TGI in assay [1], in assay [3], in assay [4], in assay [5], in assay [6] and in [7] was greater than 100 µM each time. Moreover, the TGI in assay [8] was greater than 100 µM; in assay [9], greater than 100 µM; in [10], 48.3 µM; in assay [11], greater than 100 µM; in assay [12], greater than 100 µM; in assay [13] it was greater than 100 µM. Also, the TGI in [18], in assay [14], in assay [15], in [17] and in [19] was greater than 100 µM in each case.
For the compound `CC(=O)O[C@H]1C[C@@H](OC(C)=O)[C@@](C)(O)[C@@H]2[C@@H](OC(C)=O)[C@@]3(O)[C@H](/C=C(/CCl)[C@H]4O[C@H]4[C@@H](OC(C)=O)[C@@]12C)OC(=O)[C@@H]3C`, the TGI in [1], in assay [2], in assay [3], in assay [4], in assay [5] and in assay [6] was greater than 25 µM in each case. Moreover, the TGI in assay [7], in assay [8], in assay [9], in assay [10], in [11] and in assay [12] was greater than 25 µM in each case. The TGI in assay [13], in assay [14], in assay [15], in [16] and in assay [17] was greater than 25 µM in each case.
For `CC(=O)c1sc2c(c1O)c(=O)n(-c1ccccc1)c(=S)n2-c1ccccc1`, the TGI in assay [1], in [2], in assay [3], in [4], in [5] and in [9] was greater than 100 µM in each case. Moreover, the TGI in [10], in [11], in [12], in assay [13], in [14] and in [15] was greater than 100 µM throughout. Also, the TGI in assay [16], in [17] and in assay [19] was greater than 100 µM in each case.
For `CC(=O)N1c2ccccc2[C@H]2CCc3c([nH]c4ccccc34)[C@H]21`, the TGI in assay [1] is 30.9 µM; in assay [2] it was 52.3 µM; in [3], 31.5 µM; in assay [4] it was 44.7 µM; in assay [5] it was 26.5 µM; in assay [6], greater than 100 µM. Besides, the TGI in [7] was greater than 100 µM; in assay [8] it was 49 µM; in assay [9] it was 23.3 µM; in [10], 49.3 µM; in [11], 27.5 µM; in assay [12], greater than 100 µM. Besides, the TGI is 61.9 µM in assay [13]; 26.1 µM in [18]; 39.5 µM in [14]; 31.2 µM in [15]; 57.7 µM in assay [16].
Take `NC(N)=N/N=C\c1c(-c2ccccc2)nc2sccn12`: the TGI in assay [1] was greater than 100 µM; in assay [2] it was 29.9 µM; in assay [3] it was 27.3 µM; in [4] it was 28.6 µM; in [5] it was 28.5 µM; in assay [6], 33.2 µM. In addition, the TGI in [7] came out at 28.5 µM; in assay [8] it was 28.1 µM; in [9] it was 29.7 µM; in assay [10] it was 27.1 µM; in assay [11], 28.8 µM; in assay [12], 30.6 µM. The TGI turned out to be 33 µM in [13]; 30.2 µM in assay [18]; 27.5 µM in assay [14]; 25.4 µM in assay [15]; 34.5 µM in [16]; 16.8 µM in assay [17].
